The values that follow are results of earlier work, collected in US10398729B2, “Method for treating Alzheimer's disease” (priority 2012, dated 2019).

The test system of one series is hepatoma cells SMMC-7721. Conditions: 20.0 μmol/L chromic chloride.
In series [1] the test system is elderly adults with early memory decline.
Series [2] deals with patients with mild-to-moderate AD.
The subject of the next series is brain functions. The following applies: prolonged intranasal administration.
The subject of series [3] is primary human fibroblast cells (IMR-90). Conditions: IMR-90 cells in vitro.

For `[Cl][Cr]([Cl])[Cl]` [chromic chloride], the telomere lengths result in the series with hepatoma cells SMMC-7721 is recorded as “remarkably extended the telomere lengths”. In the case of chromium picolinate, in series [1], the “cognitive performance and brain function” value is “can improve cognitive performance and brain function”.

For `C=C1/C(=C\C=C2/CCC[C@]3(C)[C@@H]([C@H](C)CCCC(C)(C)O)CC[C@@H]23)C[C@@H](O)C[C@@H]1O` [1,25D3, 1alpha,25-dihydroxyvitamin D3], the apoptosis entry in the series with macrophages is on record as “protecting against apoptosis”. Further, in the series with macrophages (studied in combination with curcuminoids), the “Abeta phagocytosis and clearance” value was “strongly stimulated”. For the molecule `CCCCCCCC(=O)OCC(COC(=O)CCCCCCC)OC(=O)CCCCCCC` [AC-1202], the memory and cognition result in series [2] was “improves memory and cognition”. For the molecule insulin, in the series with brain functions, the memory and mood entry was “improving memory and mood”; the systemic side effects entry is “absence of systemic side effects”. Consider `CC(C)(C)NO` [N-tert-butylhydroxylamine (NtBHA), N-tert-butylhydroxylamine], for which, in series [3], the “senescence-related and H2O2-stimulated iron accumulation” value is given as “attenuated”.
